Reference: patent US8153625B2, “Nitrogen-containing heterocyclic compounds and medicinal use thereof” (Ono Pharmaceutical Co., Ltd., priority 2002, dated 2012)

Columns and labels:
[1] = biological target: T1, CXCR4 (Homo sapiens, UniProt P61073); test: Inhibition of binding of human 125I-SDF-1 to CEM cells; conditions: 125I-SDF-1 binding to human T cell line CEM
T1 construct: a human T cell line known to express CXCR4 can be employed; endogenous in cells; host or cells: CEM (human T cell line), whole cells
Text: Typically, as an assay for screening for a compound which inhibits the binding between SDF-1 and CXCR4, a system measuring the binding between an I-labeled SDF-1 and a human T cell line known to express CXCR4 can be employed. Since both of a macrophage (R5) HIV and RANTES, MIP- 1 a, MIP-1I3 bind to CCR5, a similar understanding is possible.
Inhibition of Human SDF-1 with CEM Cell
In a binding buffer solution (HEPES containing BSA), a human T cell line CEM cell was mixed with a test compound and ^125I-SDF-1 (NEN) and incubated for 60 minutes at […]. The reacted CEM cell was filtered rapidly through a GF/B membrane filter plate (Packard) to effect adsorption, followed by washing three times with PBS, drying and addition of Microscint+20 (Packard).

T1 sequence (P61073 whole entry): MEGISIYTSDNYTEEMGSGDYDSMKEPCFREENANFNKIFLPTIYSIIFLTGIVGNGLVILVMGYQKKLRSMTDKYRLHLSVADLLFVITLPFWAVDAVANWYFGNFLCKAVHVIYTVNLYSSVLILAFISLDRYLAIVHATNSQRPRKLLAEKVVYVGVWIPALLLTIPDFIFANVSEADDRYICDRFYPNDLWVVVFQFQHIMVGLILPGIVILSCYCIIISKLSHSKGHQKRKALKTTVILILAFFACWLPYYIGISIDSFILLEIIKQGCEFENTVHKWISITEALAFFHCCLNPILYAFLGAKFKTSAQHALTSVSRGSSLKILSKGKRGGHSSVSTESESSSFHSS

melting point	IC50 [1]	SMILES
100 to 102 °C	200 nM	Cl.Cl.NCCNc1nccc(N2CCCCCC2)n1 [Example 1(41), 2-(2-aminoethylamino)-4-(perhydroazepin-1-yl)pyrimidine dihydrochloride]
–	150 nM	c1ccc(CN2CCC(Nc3nccc(N4CCCCCC4)n3)C2)cc1 (stereo not drawn) [Example 4, 2-(1-benzylpyrrolidin-3-ylamino)-4-(perhydroazepin-1-yl)pyrimidine]
